The target in the assay is T1, human TMEM16A (TMEM16Aabc variant) (Homo sapiens, UniProt Q5XXA6, DEL476-501).
T1 sequence (Q5XXA6 with tags, fused parts or gaps isoform Q5XXA6-5 DEL539-564): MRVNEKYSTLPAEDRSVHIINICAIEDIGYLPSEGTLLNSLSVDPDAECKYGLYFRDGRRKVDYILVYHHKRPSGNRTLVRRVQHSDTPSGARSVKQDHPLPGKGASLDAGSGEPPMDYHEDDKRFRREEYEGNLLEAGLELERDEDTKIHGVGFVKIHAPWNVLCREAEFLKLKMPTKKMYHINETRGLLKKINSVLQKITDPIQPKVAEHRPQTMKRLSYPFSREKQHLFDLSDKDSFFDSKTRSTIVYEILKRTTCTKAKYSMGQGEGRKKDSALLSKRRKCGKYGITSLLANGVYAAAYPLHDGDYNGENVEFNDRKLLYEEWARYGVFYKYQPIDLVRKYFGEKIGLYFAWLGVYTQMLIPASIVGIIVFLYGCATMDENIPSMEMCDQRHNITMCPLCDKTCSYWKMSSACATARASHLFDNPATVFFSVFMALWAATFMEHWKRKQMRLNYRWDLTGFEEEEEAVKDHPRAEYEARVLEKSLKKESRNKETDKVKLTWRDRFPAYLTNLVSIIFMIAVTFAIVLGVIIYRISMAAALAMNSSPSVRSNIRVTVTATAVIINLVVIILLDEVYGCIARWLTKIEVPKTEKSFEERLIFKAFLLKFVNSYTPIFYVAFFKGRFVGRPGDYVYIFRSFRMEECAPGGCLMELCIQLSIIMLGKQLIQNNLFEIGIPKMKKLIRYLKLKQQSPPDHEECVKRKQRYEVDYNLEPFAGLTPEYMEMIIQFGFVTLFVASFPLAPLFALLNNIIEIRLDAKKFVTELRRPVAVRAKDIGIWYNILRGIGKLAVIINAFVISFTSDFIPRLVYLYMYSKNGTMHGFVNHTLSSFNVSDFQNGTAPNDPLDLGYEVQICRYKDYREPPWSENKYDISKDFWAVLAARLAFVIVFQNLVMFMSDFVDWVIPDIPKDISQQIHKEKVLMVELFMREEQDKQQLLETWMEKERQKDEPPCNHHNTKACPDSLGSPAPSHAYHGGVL
Briefly: Automated whole-cell patch clamp (Qpatch) TMEM16A potentiator assay in FRT cells stably expressing human TMEM16A. It is filed as cell-based. The following applies: for activation at 3.33 µM: 3.33 μM test compound, percentage increase of baseline TMEM16A current at +70 mV, intracellular calcium at EC20, read-out: % Potentiation @ 3.33 μM Avg; for pEC50: cumulative concentration response, 5 min per concentration, whole-cell patch clamp. On the procedure:
Automated whole-cell patch clamp assay to detect TMEM16A activity in recombinant cells Cell culture and preparation
Fisher rat thyroid (FRT) cells stably expressing human TMEM16A (TMEM16Aabc variant; Dr Luis Galietta, Insituto Giannina, Italy) were cultured in T-75 flasks in Hams F-12 media with Coon's modification (Sigma) supplemented with 10% (v/v) foetal bovine serum, penicillin-streptomycin (10,000 U/mL/10000 μg/mL), G-418 (750μg/mL), L-glutamine (2 mM) and sodium bicarbonate solution (7.5% v/v). At —90% confluence cells were harvested for experiments by detachment with a 2:1 (v/v) mixture of Detachin (BMS Biotechnology) and 0.25% (w/v) trypsin-EDTA. Cells were diluted to a density of 3.5-4.5×10^6 cells/mL with media consisting of CHO-S-SFM II (Sigma), 25 mM HEPES (Sigma) and Soy bean trypsin inhibitor (Sigma).
Whole-Cell Patch Clamp Recording
FRT-TMEM16A cells were whole-cell patch clamped using an automated planar patch clamp system (Qpatch, Sophion). Briefly, once high resistance (GOhm) seals were established between the cells and the planar recording array the patch was ruptured using suction pulses to establish the whole-cell recording configuration of the patch clamp technique. The assay employed the following solutions (all reagents Sigma):
Intracellular solution (mM): N-methyl-D-glucamine 130, CaCl2 18.2, MgCl2 1, HEPES 10, EGTA 10, BAPTA 20, Mg-ATP 2, pH 7.25, 325mOsm with sucrose.
Extracellular solution (mM): N-methyl-D-glucamine 130, CaCl2 2, MgCl2 1, HEPES 10, pH 7.3, 320 mOsm with sucrose.
The intracellular solution buffers intracellular calcium at levels required to give —20% activation of the maximal TMEM16A mediated current (EC20 for calcium ions). Cells were voltage clamped at a holding potential of -70mV and a combined voltage step (to +70 mV)/ramp (−90 my to +90 mV) was applied at 0.05 Hz. After a period of current stabilisation test compounds, solubilised in 100% (v/v) DMSO and subsequently diluted into extracellular solution, were applied to generate a cumulative concentration response curve. Each concentration of test compound was incubated for 5 minutes before addition of the next concentration. After the final concentration was tested a supramaximal concentration of either a known active positive modulator or the TMEM16A inhibitor, CaCCinhA01 (Del La Fuente et al, 2008) was added to define the upper and lower limits of the assay.
Compound activity was quantified by measuring the increase in current upon compound addition and expressing this as a percentage increase of baseline TMEM16A current level. Percentage increases in current were determined for each concentration and the data plotted as a function of concentration using either the Qpatch software or Graphpad Prism v6.05 providing the concentration which gave 50% of its maximal effect (EC50) and maximum efficacy (percentage of baseline increase).
In FIG. 1, IBL equals baseline current, km equals the peak current during test compound concentration 1 incubation period and so on.
Peak TMEM16A current at +70mV was plotted as a function of time over the assay period. Baseline current (IBL) was measured after a period of stabilisation. The increase in current for each compound addition was determined by taking the peak current during the incubation period and subtracting the current from the previous recording period and then expressing this as a percentage of the baseline current. For test compound concentration 1 in FIG. 1 this is:
For each additional concentration tested the increase in current was determined by subtracting the current from the previous incubation period and normalising the baseline value—for test concentration 2 in FIG. 1 this is:
The values for each test concentration were plotted as a cumulative function of concentration e.g. for test concentration two this would be the sum of the peak changes measured during concentration one plus concentration two.
In general terms: In patch-clamp work, channel activity is measured electrically.

Consider 22 molecules from US20240132467A1, “BENZIMIDAZOLE DERIVATIVES FOR TREATING RESPIRATORY DISEASE” (TMEM16A Limited, priority 2020, published 2024).

pEC50: −log10 of the molar value.

Usually pEC50 stands for the negative decadic logarithm of the EC50, by convention in mol/L. With `O=C(CC1(O)C2CC3CC(C2)CC1C3)Nc1ccc2[nH]c(Cc3ccccc3)nc2c1` (stereo not shown) [Example 1.6], the activation at 3.33 µM came to 83.9% and the pEC50 was 6.64.

Take `COc1cccc(Cc2nc3cc(NC(=O)CC4C5CC6CC(C5)CC4C6)ccc3[nH]2)c1` (stereo not shown) [Example 1.7, 2-(2-Adamantyl)-N-12-[(3-methoxyphenyl)methyl]-1H-benzimidazol-5-yljacetamide]: the activation at 3.33 µM was determined as 136% and the pEC50 is 6.23.

In the case of `C[C@@H](c1ccccc1)c1nc2cc(NC(=O)CC3C4CC5CC(C4)CC3C5)ccc2[nH]1` (stereo partly shown) [Example 1.7.1, 2-(2-Adamantyl)-N[2-[(1 S)-1-phenylethyl]-1H-benzimidazol-5-yl]acetamide], the activation at 3.33 µM was 157% and the pEC50 is 6.56. Consider `C[C@H](c1ccccc1)c1nc2cc(NC(=O)CC3C4CC5CC(C4)CC3C5)ccc2[nH]1` (stereo partly drawn) [Example 1.7.2, 2-(2-Adamantyl)-N[2-[(1R)-1-phenylethyl]-1H-benzimidazol-5-yl]acetamide], for which the activation at 3.33 µM worked out at 143% and the pEC50 is 6.53. The corresponding values for `CC(C)(C)OC(=O)NCc1nc2cc(NC(=O)CC34CC5CC(CC(C5)C3)C4)ccc2[nH]1` [Example 1.7.3, tert-Butyl N-[[5-[[2-(1-adamantyl)acetyl]amino]-1H-benzimidazol-2-yl]methyl]carbamate] are 114% and 5.95.

`COc1ncccc1Cc1nc2cc(NC(=O)CC34CC5CC(CC(C5)C3)C4)ccc2[nH]1` [Example 1.7.4, 2-(1-Adamantyl)-N-12-[(2-methoxy-3-pyridyl)methyl]-1H-benzimidazol-5-yljacetamide]: the activation at 3.33 µM is 148% and the pEC50 is 5.88.

Regarding `O=C(CC1C2CC3CC(C2)CC1C3)Nc1ccc2[nH]c(Cc3cccc(O)c3)nc2c1` (stereo not shown) [Example 1.8, 2-(2-Adamantyl)-N-12-[(3-hydroxyphenyl)methyl]-1H-benzimidazol-5-yljacetamide], the activation at 3.33 µM was found to be 126% and the pEC50 was 6.59. Take `CC(C)(C)c1nc2cc(C(=O)NCc3cc(Cl)ccc3O)ccc2[nH]1` [Example 1.9, 2-tert-Butyl-N-[(5-chloro-2-hydroxy-phenyl)methyl]-1H-benzimidazole-5-carboxamide]: the activation at 3.33 µM came out at 52.1%.

On to `CC(C)(C)OC(=O)NCc1nc2cc(C(=O)NCC3CCCCCC3)ccc2[nH]1` [Example 1.10, tert-Butyl N-[[5-(cycloheptylmethylcarbamoyl)-1H-benzimidazol-2-yl]methyl] carbamate], for which the activation at 3.33 µM amounted to 110% and the pEC50 is 6.05. The corresponding values for `CC1(CNC(=O)c2ccc3[nH]c(Cc4ccccc4)nc3c2)CCCCC1` [Example 1.10.1, 2-Benzyl-N-1(1-methylcyclohexyl)methylj-1H-benzimidazole-5-carboxamide] are 124% and 6.68.

As to `O=C(NCC1CCCCCCC1)c1ccc2[nH]c(Cc3ccccc3)nc2c1` [Example 1.10.2, 2-Benzyl-N-(cyclooctylmethyl)-1H-benzimidazole-5-carboxamide], the activation at 3.33 µM worked out at 76.1% and the pEC50 is 6.72. For `CC(C)(C)OC(=O)NCC1(CC(=O)Nc2ccc3[nH]c(Cc4ccccc4)nc3c2)CCCCC1` [Example 2.1, tert-Butyl N-[[1-[2-[(2-benzyl-1H-benzimidazol-5-yl)amino]-2-oxo-ethyl]cyclohexyl]methyl]carbamate] the same measures were 215% and 6.07. For the molecule `O=C(CC1CCC(F)(F)CC1)Nc1ccc2[nH]c(Cc3ccccc3)nc2c1` [Example 2.1.1], the activation at 3.33 µM is 47.6% and the pEC50 was 6.24. With `COCC(NC(=O)OC(C)(C)C)c1nc2cc(NC(=O)CC3C4CC5CC(C4)CC3C5)ccc2[nH]1` (stereo not shown) [Example 2.2, tert-Butyl N-[1-[5-[[2-(2-adamantyl)acetyl]amino]-1H-benzimidazol-2-yl]-2-methoxy-ethyl]carbamate], the activation at 3.33 µM amounted to 197% and the pEC50 was 6.21. For `CN(C(=O)OC(C)(C)C)[C@H](c1ccccc1)c1nc2cc(NC(=O)CC3C4CC5CC(C4)CC3C5)ccc2[nH]1` (stereo partly shown) [Example 2.2.1] the same measures were 97.7% and 6.04. For `CN(C(=O)OC(C)(C)C)[C@@H](c1ccccc1)c1nc2cc(NC(=O)CC3C4CC5CC(C4)CC3C5)ccc2[nH]1` (stereo partly shown) [Example 2.2.2] the same measures were 127% and 6.02. For `CCN(Cc1nc2ccc(NC(=O)CC3C4CC5CC(C4)CC3C5)cc2[nH]1)C(=O)OC(C)(C)C` (stereo not shown) [Example 2.2.3] the same measures were 155% and 5.99.

As to `COCCN(Cc1nc2ccc(NC(=O)CC3C4CC5CC(C4)CC3C5)cc2[nH]1)C(=O)OC(C)(C)C` (stereo not shown) [Example 2.2.4], the activation at 3.33 µM was found to be 190% and the pEC50 was 5.97.

On to `COCCc1nc2ccc(NC(=O)CC3C4CC5CC(C4)CC3C5)cc2[nH]1` (stereo not shown) [Example 2.2.5, 2-(2-Adamantyl)-N[2-(2-methoxyethyl)-3H-benzimidazol-5-yl]acetamide], for which the activation at 3.33 µM amounted to 113% and the pEC50 was 6.12.

Consider `COCCCc1nc2cc(NC(=O)CC3C4CC5CC(C4)CC3C5)ccc2[nH]1` (stereo not shown) [Example 2.2.6, 2-(2-Adamantyl)-N[2-(3-methoxypropyl)-1H-benzimidazol-5-yl]acetamide], for which the activation at 3.33 µM came to 167% and the pEC50 was 6.11. As to `CN(Cc1nc2cc(NC(=O)CC3C4CC5CC(C4)CC3C5)ccc2[nH]1)C(=O)OC(C)(C)C` (stereo not shown) [Example 2.3, tert-Butyl N-[[5-[[2-(2-adamanty)acetyl]amino]-1H-benzimidazol-2-yl]methyl]-N-methyl-carbamate], the activation at 3.33 µM was 201% and the pEC50 is 5.97. For `O=C(NCC1CCCCCC1)c1ccc2[nH]c(C3COc4ccccc43)nc2c1` (stereo not shown) [Example 2.4, N-(Cycloheptylmethyl)-2-(2,3-dihydrobenzofuran-3-yl)-1H-benzimidazole-5-carboxamide] the same measures were 133% and 6.18.
